Data published in patent US20230087118A1, “IMIDAZO[1,2-a][sequence] DERIVATIVES AND THEIR USE IN THE TREATMENT OF DISEASE” (priority 2019, published 2023).
Where two headings read alike, the source gives them in different places.

Biological target: T1, IRAK4 (Homo sapiens, UniProt Q9NWZ3)
T1 sequence (Q9NWZ3 1-460): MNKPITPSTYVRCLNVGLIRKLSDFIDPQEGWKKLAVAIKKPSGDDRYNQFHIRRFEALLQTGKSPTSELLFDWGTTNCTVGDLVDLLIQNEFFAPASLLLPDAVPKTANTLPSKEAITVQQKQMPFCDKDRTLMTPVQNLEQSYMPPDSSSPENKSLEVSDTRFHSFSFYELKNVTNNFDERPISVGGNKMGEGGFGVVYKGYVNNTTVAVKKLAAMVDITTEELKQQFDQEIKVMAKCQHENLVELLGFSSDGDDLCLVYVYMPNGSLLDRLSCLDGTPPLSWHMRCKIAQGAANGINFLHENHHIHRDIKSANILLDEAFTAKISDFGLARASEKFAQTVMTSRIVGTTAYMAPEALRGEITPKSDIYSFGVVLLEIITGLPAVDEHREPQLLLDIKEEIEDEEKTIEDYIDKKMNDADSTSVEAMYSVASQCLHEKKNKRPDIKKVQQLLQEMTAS
Assay: biochemical

[1] = IRAK4 Biochemical Assay (1 mM ATP, 2 h) IC50 (μM), 1 mM ATP, 2 h, 100 pM IRAK4

Row | SMILES | IC50 | IC50 [1]
1 | CC12CC(c3cn4cc(C(=O)Nc5cccn(C(F)F)c5=O)c(OCC5CC5(F)F)cc4n3)(CO1)C2 (stereo not drawn) [Example 452, 7-((2,2-Difluorocyclopropyl)methoxy)-N-(1-(difluoromethyl)-2-oxo-1,2-dihydropyridin-3-yl)-2-(1-methyl-2-oxabicyclo[2.1.1]hexan-4-yl)imidazo[1,2-a]pyridine-6-carboxamide] | 0.0008 µM | 
2 | CC(C)COc1cc2nc(C34COC(C)(C3)C4)cn2cc1C(=O)Nc1cccn(C(F)F)c1=O [Example 453, N-(1-(difluoromethyl)-2-oxo-1,2-dihydropyridin-3-yl)-7-isobutoxy-2-(1-methyl-2-oxabicyclo[2.1.1]hexan-4-yl)imidazo[1,2-a]pyridine-6-carboxamide] | 0.0007 µM | 
3 | CC12CC(c3cn4cc(C(=O)Nc5cccn(C(F)F)c5=O)c(OC5CCOCC5)cc4n3)(CO1)C2 [Example 454, N-(1-(difluoromethyl)-2-oxo-1,2-dihydropyridin-3-yl)-2-(1-methyl-2-oxabicyclo[2.1.1]hexan-4-yl)-7-((tetrahydro-2H-pyran-4-yl)oxy)imidazo[1,2-a]pyridine-6-carboxamide] | 0.0024 µM | 
4 | CC12CC(c3cn4cc(C(=O)Nc5cccn(C(F)F)c5=O)c(OC5CC(F)(F)C5)cc4n3)(CO1)C2 [Example 455, 7-(3,3-Difluorocyclobutoxy)-N-(1-(difluoromethyl)-2-oxo-1,2-dihydropyridin-3-yl)-2-(1-methyl-2-oxabicyclo[2.1.1]hexan-4-yl)imidazo[1,2-a]pyridine-6-carboxamide] | 0.0012 µM | 
5 | CC12CC(c3cn4cc(C(=O)Nc5cccn(C(F)F)c5=O)c(OCC5(F)CCOCC5)cc4n3)(CO1)C2 [Example 456, N-(1-(difluoromethyl)-2-oxo-1,2-dihydropyridin-3-yl)-7-((4-fluorotetrahydro-2H-pyran-4-yl)methoxy)-2-(1-methyl-2-oxabicyclo[2.1.1]hexan-4-yl)imidazo[1,2-a]pyridine-6-carboxamide] |  | 0.0071 µM
6 | CC12CC(c3cn4cc(C(=O)Nc5cccn(C(F)F)c5=O)c(OC5CCCC5)cc4n3)(CO1)C2 [Example 457, 7-(Cyclopentyloxy)-N-(1-(difluoromethyl)-2-oxo-1,2-dihydropyridin-3-yl)-2-(1-methyl-2-oxabicyclo[2.1.1]hexan-4-yl)imidazo[1,2-a]pyridine-6-carboxamide] | 0.0002 µM | 
7 | O=C(Nc1cccn(C(F)F)c1=O)c1cn2cc(C3CC3)nc2cc1OC1CCCC1 [Example 458, 7-(Cyclopentyloxy)-2-cyclopropyl-N-(1-(difluoromethyl)-2-oxo-1,2-dihydropyridin-3-yl)imidazo[1,2-a]pyridine-6-carboxamide] | 0.0019 µM | 
8 | O=C(Nc1cccn(C(F)F)c1=O)c1cn2cc(C3CC3)nc2cc1OC1CCOC1 (stereo not drawn) [Example 459, 2-Cyclopropyl-N-(1-(difluoromethyl)-2-oxo-1,2-dihydropyridin-3-yl)-7-((tetrahydrofuran-3-yl)oxy)imidazo[1,2-a]pyridine-6-carboxamide] | 0.0084 µM | 
9 | CC1(C)CC(Oc2cc3nc(C4CC4)cn3cc2C(=O)Nc2cccn(C(F)F)c2=O)C1 [Example 460, 2-Cyclopropyl-N-(1-(difluoromethyl)-2-oxo-1,2-dihydropyridin-3-yl)-7-(3,3-dimethylcyclobutoxy)imidazo[1,2-a]pyridine-6-carboxamide] | 0.0099 µM | 
10 | O=C(Nc1cccn(C(F)F)c1=O)c1cn2cc(C3CC3)nc2cc1OC1CC(C(F)F)C1 (stereo not drawn) [Example 461, 2-Cyclopropyl-N-(1-(difluoromethyl)-2-oxo-1,2-dihydropyridin-3-yl)-7-(3-(difluoromethyl)cyclobutoxy)imidazo[1,2-a]pyridine-6-carboxamide] |  | 0.0072 µM
11 | COc1ncccc1NC(=O)c1cn2cc(C3CC3)nc2cc1OC1CCC1 [Example 462, 7-Cyclobutoxy-2-cyclopropyl-N-(2-methoxypyridin-3-yl)imidazo[1,2-a]pyridine-6-carboxamide] | 0.0032 µM | 
12 | COc1cccc(NC(=O)c2cn3cc(C4CC4)nc3cc2OC2CCC2)n1 [Example 463, 7-Cyclobutoxy-2-cyclopropyl-N-(6-methoxypyridin-2-yl)imidazo[1,2-a]pyridine-6-carboxamide] | 0.0057 µM | 
